Measured values reported in paper PMC5433425 (PeerJ, 2017).

Assay: Cytotoxicity, AlamarBlue method
Assay type: cell-based, human
Details: human
Protocol: The blood was collected from healthy donors and the peripheral blood mononuclear cells were isolated by Ficoll-Paque Plus (GE Healthcare, Freiburg, Germany) density gradient centrifugation as previously described ([Machado et al., 2016]). […] Fresh medium was added at day 4 post isolation. The effect of the compounds on human monocyte-derived macrophages was evaluated using the AlamarBlue method (Molecular Probes, Life Technologies) ([O’Brien et al., 2000]), and by measuring the release of the lactate dehydrogenase (LDH) into the culture supernatants using the Pierce LDH Cytotoxicity Assay (ThermoFisher Scientific, Waltham, MA, USA) ([Chan, Moriwaki & Rosa, 2013]) according to the manufacturer’s instructions. Briefly, 5 × 10^4 cells were seeded in 96-well microplates treated with the compounds, and incubated at 37 °C with 5% CO2. After 72 h of treatment, the cell viability was assessed. For the AlamarBlue method, the dye was added to each well to a final concentration of 10% and incubated overnight at 37 °C and 5% CO2. The fluorescence was measured with a 540/35 excitation filter and a 590/20 emission filter in a Synergy HT multi-mode microplate reader. The release of LDH from damaged cells into culture supernatants, as an indicator of cytotoxicity, was measured in serum-free medium. Here the amount of enzyme activity correlates to the number of damaged cells. The specific lysis was calculated as follows: (treated cells—spontaneous LDH release)/ (maximum LDH release—spontaneous LDH release) ×100.

CN(C)CCCN1c2ccccc2Sc2ccc(Cl)cc21 [CPZ, chlorpromazine]
CC50 at 3 days: 22.2 µM | CC90 at 3 days: 37 µM
